Drawing on ChEMBL document CHEMBL3046434, “cAMP-dependent phosphodiesterase inhibition and SAR studies on novel 6,8-disubstituted 2-phenyl-3-(substituted benzothiazole-2-yl)-4[3H]-quinazolinone” (Med Chem Res, 2009), this text covers Ratio for 27 compounds.

The target of the assay is T1, PDE7B protein (Bos taurus) (UniProt A6QP37).
T1 sequence (whole entry): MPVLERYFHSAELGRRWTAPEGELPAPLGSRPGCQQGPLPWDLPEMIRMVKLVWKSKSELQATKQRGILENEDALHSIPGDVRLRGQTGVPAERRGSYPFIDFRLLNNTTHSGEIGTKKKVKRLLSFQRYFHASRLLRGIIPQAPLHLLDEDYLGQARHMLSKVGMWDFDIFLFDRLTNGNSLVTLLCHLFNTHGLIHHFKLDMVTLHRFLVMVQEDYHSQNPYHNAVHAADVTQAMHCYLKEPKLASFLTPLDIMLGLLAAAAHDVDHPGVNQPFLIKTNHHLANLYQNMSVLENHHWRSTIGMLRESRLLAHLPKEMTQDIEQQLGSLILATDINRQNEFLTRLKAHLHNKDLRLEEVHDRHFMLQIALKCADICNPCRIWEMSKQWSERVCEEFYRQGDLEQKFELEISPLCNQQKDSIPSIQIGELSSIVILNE
Kind of assay: Inhibition of Bos taurus (bovine) heart cAMP-dependent phosphodiesterase assessed as inhibition of cyclic AMP to 5' AMP after 20 min by spectrophotometry relative to theophylline.
For `Cc1ccc2sc(-n3c(-c4ccccc4)nc4ccccc4c3=O)nc2c1`, the Ratio is 1.29. Regarding `O=c1c2cc(Br)cc(Br)c2nc(-c2ccccc2)n1-c1nc2ccc([N+](=O)[O-])cc2s1`, the Ratio stood at 0.869. Regarding `O=c1c2cc(Br)cc(Br)c2nc(-c2ccccc2)n1-c1nc2ccc(Br)cc2s1`, the Ratio amounted to 0.927. Turning to `CCOc1ccc2sc(-n3c(-c4ccccc4)nc4ccccc4c3=O)nc2c1`, the Ratio came to 1.41. Take `Cc1cccc2sc(-n3c(-c4ccccc4)nc4ccccc4c3=O)nc12`: the Ratio was determined as 1.27. The figure for `COc1cccc2sc(-n3c(-c4ccccc4)nc4c(Br)cc(Br)cc4c3=O)nc12` is 1.18; for `COc1cccc2sc(-n3c(-c4ccccc4)nc4ccccc4c3=O)nc12` it is 1.33. As to `Cc1cc(C)c2nc(-n3c(-c4ccccc4)nc4ccccc4c3=O)sc2c1`, the Ratio was 1.35. The same measure for `O=c1c2ccccc2nc(-c2ccccc2)n1-c1nc2ccc([N+](=O)[O-])cc2s1`: 1.47; for `O=c1c2ccccc2nc(-c2ccccc2)n1-c1nc2cc(Cl)ccc2s1`: 1.21. For `Cc1ccc2sc(-n3c(-c4ccccc4)nc4c(Br)cc(Br)cc4c3=O)nc2c1`, the Ratio worked out at 1.13. Turning to `O=c1c2cc(Br)cc(Br)c2nc(-c2ccccc2)n1-c1nc2ccccc2s1`, the Ratio came to 1.08. The same measure for `CCOc1ccc2sc(-n3c(-c4ccccc4)nc4c(Br)cc(Br)cc4c3=O)nc2c1`: 1.22; for `CCOc1ccc2nc(-n3c(-c4ccccc4)nc4c(Br)cc(Br)cc4c3=O)sc2c1`: 1.19; for `CCOc1cccc2sc(-n3c(-c4ccccc4)nc4ccccc4c3=O)nc12`: 1.38. The same measure for `COc1ccc2sc(-n3c(-c4ccccc4)nc4c(Br)cc(Br)cc4c3=O)nc2c1`: 1.18; for `O=c1c2ccccc2nc(-c2ccccc2)n1-c1nc2ccc(Br)cc2s1`: 1.28. For the compound `CCOc1ccc2nc(-n3c(-c4ccccc4)nc4ccccc4c3=O)sc2c1`, the Ratio was 1.38. The figure for `CCOc1cccc2sc(-n3c(-c4ccccc4)nc4c(Br)cc(Br)cc4c3=O)nc12` is 1.21; for `Cn1c(=O)c2[nH]cnc2n(C)c1=O` it is 1. On to `COc1ccc2nc(-n3c(-c4ccccc4)nc4c(Br)cc(Br)cc4c3=O)sc2c1`, for which the Ratio was 1.2. On to `Cc1cc(C)c2nc(-n3c(-c4ccccc4)nc4c(Br)cc(Br)cc4c3=O)sc2c1`, for which the Ratio came to 1.17. The same measure for `O=c1c2ccccc2nc(-c2ccccc2)n1-c1nc2ccccc2s1`: 1.22; for `Cc1cccc2sc(-n3c(-c4ccccc4)nc4c(Br)cc(Br)cc4c3=O)nc12`: 1.14; for `O=c1c2cc(Br)cc(Br)c2nc(-c2ccccc2)n1-c1nc2cc(Cl)ccc2s1`: 0.844. `COc1ccc2nc(-n3c(-c4ccccc4)nc4ccccc4c3=O)sc2c1`: the Ratio stood at 1.35. Regarding `COc1ccc2sc(-n3c(-c4ccccc4)nc4ccccc4c3=O)nc2c1`, the Ratio came to 1.34.
